What was measured:
[1] = 1000 mg pangamic acid per kg of feed; not affected, same as control group; cited from earlier work
ascites [2] = details: coenzyme Q added to high-calorie pelletized feed, growth rate higher than 50 g/day; cited from earlier work
[3] = Broiler slaughter test: production performance (mortality, growth rate, feed conversion rate); assay type: in vivo, broilers; details: 167 mg DMG per kg feed
Description: (§1) To examine all the effects associated with the supplementation of dimethylglycine in fowl feed, a test was setup with broilers as model species. In this slaughter test with 64 broiler hens, 14-day old chickens were bred for 26 days, i.e. till the age of 40 days. At the beginning of the test the broilers were ad random divided in 16 groups of 4 specimens. The birds were fed with one type of feed from the first day on till the end of the test period. The type of feed was attributed on a random basis to the different housings. The animals were setup with a colored ring around their leg for identification purposes within each housing. The control feed was based on a commercial broiler crumble enriched with 5% corn oil to increase the oxidative stress in the feed. Further 1% celite was mixed into the feed as external marker to allow the determination of the apparent nutrient digestibility. The feed had the following composition: 87.65% dry matter, 6.13% ash, 18.05% crude protein, 9.13% crude fat, 4.32% crude fibre and 50.01% other carbohydrates (including 89% starch and 2% sugar). It has a (calculated) metabolizable energy value of about 13.4 MJ/kg.
(§2) In the second type of feed 167 mg of DMG was added per kilogram to the same composition of feed as described for the control feed. Over the entire test period, the broilers consumed on average about 25 mg DMG per bird per day. The housing of the broilers consisted out of circular housings with an open roof and bottom and with a total surface of 0.72 m^2. The material of the fencing was a flexible wire netting with a height of 1 m and mazes of 2×2 cm and thickness of 2 mm. The bottom was strewed with a thick layer of turf with on top a layer of wood-shavings. Feed and water were ad libitum available at all times. The average environmental temperature was maintained at 15° C. to increase the occurrence of ascites (Shlosberg A., Zadikov I., Bendheim U., Handji V., Berman E. Avian Pathology, 21, 369-382 (1992)). A conventional light scheme of 23 hours light:1 hour dark was applied
The daily growth during the two periods (between the first and fifteenth day and between the sixteenth and twentysixth day) was calculated for each surviving animal. The feed uptake for each housing was also measured during both periods. The commercial feed conversion rate was calculated for each of the housings for both periods (FCRI and FCR II) and for the total growth period. This commercial feed conversion rate was calculated by dividing the total feed consumption by the weight gain of the birds which stayed alive during the entire experiment, including also the feed consumption of the birds that died. To determine only the non-therapeutic effect of DMG on the feed conversion rate, the actual feed conversion rate of the living birds was also calculated more particularly on the basis of weight gain and the feed consumed by these living birds (based on the weight gain of the birds that died, the amount of feed consumed by these birds was detracted from the total feed consumption).

ascites [4] = test: Broiler slaughter test: incidence of ascites and ascites heart index at autopsy; assay type: in vivo, broilers
Description: as §1, §2
Finally there was also an autopsy on all chickens. First, the carcass weight was determined by dissection of the head, the paws, evisceration and the deduction of the average feather weight. Next, the weight of the breast, buttock and thigh muscle were determined. Also the heart, liver and abdominal fat were measured. Macroscopic lesions related to ascites were visually reviewed and described as indicated by Scheele et al. (2003) (Scheele, C. W., Van Der Klis, J. D., Kwakernaak, C., Buys, N., Decuypere, E., British Poultry Science, 44(3), 484-489 (2003)), these were: accumulation of liquid in the abdomen, a hydropericard and right heart dilatation. The latter was quantified by the ascites heart index (AHD being the ratio of the dry weight of the right ventricle to the dry weight of both ventricles after freeze drying.

For CN(C)CC(=O)OC[C@@H](O)[C@@H](O)[C@H](O)[C@@H](O)C(=O)O [pangamic acid, 6-O-(dimethylaminoacetyl)-D-gluconic acid], the feed conversion rate [1] is listed as “about 2.5”.
For coenzyme Q, the “mortality due to ascites” value (ascites [2]) is given as “reduced considerably”.
With CN(C)CC(=O)O [DMG, N,N-dimethylglycine] the “Mortality (%)” value ([3]; 26-day test, 15° C, feed enriched with 5% corn oil) was 6.25%, the “Growth rate (g/d) Phase I (days 1-15)” value ([3]; days 1-15) was 70 g/day and the “Commercial feed conversion FCR I (days 1-15)” value ([3]; days 1-15, includes feed of birds that died) was 2.23. The “Actual feed conversion FCR I (days 1-15)” value ([3]; days 1-15, living birds only) was 2.07, the “Growth rate (g/d) Total (days 1-26)” value ([3]; days 1-26) was 77 g/day and the “Commercial feed conversion FCR total (days 1-26)” value ([3]; days 1-26, includes feed of birds that died) was 2.19. For the same compound, the “Actual feed conversion FCR total (days 1-26)” value ([3]; days 1-26, living birds only) was 2.09, the “Growth rate (g/d) Phase II (days 15-26)” value ([3]; days 15-26) was 87 g/day and the “Commercial feed conversion FCR II (days 15-26)” value ([3]; days 15-26, includes feed of birds that died) was 2.17. The “Actual feed conversion FCR II (days 15-26)” value ([3]; days 15-26, living birds only) was 2.13, the “Ascites (%)” value (ascites [4]; 167 mg DMG per kg feed, 26-day test, 15° C) was 6.25% and the “AHI, all animals (ascites heart index)” value (ascites [4]; 167 mg DMG per kg feed, autopsy, all animals) was 0.242. The “AHI, surviving animals (ascites heart index)” value (ascites [4]; 167 mg DMG per kg feed, autopsy, surviving animals) was 0.241, the “Influence DMG (%) on AHI, all animals” value (ascites [4]; versus control, all animals) was −17.5% and the “Influence DMG (%) on AHI, surviving animals” value (ascites [4]; versus control, surviving animals) was −19.2%.

— patent publication US20140316004A1, “TREATMENT OF POULTRY FOR REDUCING THE FEED CONVERSION RATE OR FOR REDUCING THE INCIDENCE OF ASCITES” (TAMINCO N.V., priority 2006, published 2014)
